These results are taken from PubChem BioAssay AID1963842 (Molecular Pharmacology Branch, DTP, NCI, 2024).

In this assay the test system is 677734-321-R-J1-PDC complex spheroid viability. As to the kind of experiment: Anticancer human tumor 677734-321-R-J1-PDC patient-derived soft tissue sarcoma cell line growth inhibition [POLQ]. Particulars: for viability, T/C: stronger effect = lower value; for IC50: curve of first compound. As to the method:
Multicellular complex tumor spheroid response to Polymerase (POL) inhibitors (novobiocin, ART-558, RP6685) in combination with a variety of drugs and investigational agents in selected tumor cell lines
The POL inhibitors (novobiocin, ART-558, and RP6685) were evaluated both individually and in combination with standard of care and investigational anticancer small molecules within a complex spheroid model of solid tumors. . Complex spheroids include a stromal component modeled by human endothelial cells (HUVEC) and fibroblasts modeled by human mesenchymal stem cells (MSCs). The concentration ranges selected for each drug and investigational agent were based upon clinically achievable concentrations if the clinical Cmax of the agent was known.
Compounds. The drugs and investigational agents: novobiocin (NSC847541), ART-558 (NSC835418), RP-6685 (NSC848927), peposertib (NSC802822), ceralasertib (NSC780249), elimusertib (NSC800525), camonsertib (NSC841442), AZD-1390 (NSC803789), olaparib (NSC753686), talazoparib (NSC767125), rucaparib (NSC756644), sotorasib (NSC818433), MRTX-1133 (NSC836407), SN-38 (NSC673596), topotecan (NSC609699), epotoside (NSC141540), doxorubicin (NSC123127), gemcitabine (NSC613327), 5-fluorouracil (NSC19893), paclitaxel (NSC125973), vemurafenib (NSC761431), MSA-2 (NSC828583), SN-011 (NSC837082), adavosertib (NSC754352), prexasertib (NSC758257), carboplatin (NSC241240) and oxaliplatin (NSC266046), were obtained from the National Cancer Institute (NCI) Developmental Therapeutics Program Chemical Repository (21). The FDA-approved anticancer drug set is available from the Developmental Therapeutics Program at https://dtp.cancer.gov/organization/dscb/obtaining/. […] The stock solutions were prepared in dimethyl sulfoxide (DMSO, Sigma-Aldrich, St. Louis, MO, cat. D2650), except for the platinum compounds which were prepared in saline (Quality Biological, Gaithersburg, MD, cat. 114-055-101), at 800-fold the tested concentration and stored at -70 degrees C prior to their use. All drugs and investigational agents were tested over a range starting from a high concentration at or near the clinical Cmax and decreasing in half-log increments. If the clinical Cmax for an agent had not been determined, the highest concentration tested was 10 microM, except for SN-38, which was tested at a high concentration of 1 microM.
Cell Culture. All cells were maintained in an incubator at 37 degrees C and 5% CO2 with 95% humidity. The PDC lines were cultured according to standard operating procedures established by the NCI PDMR (https://pdmr.cancer.gov). Table 3 of the manuscript, lists the cell lines along with the number of the three cell types plated to form the mct-spheroids and media for tumor cell growth. After thawing, all PDC lines, except 997537-175-T-J1-PDC and 415267-285-R-J2-PDC, were cultured in Matrigel-coated flasks prepared with a working solution of 1X Ham's F-12 nutrient mix, without supplementation (Thermo Fisher Scientific, cat. 11765054), 100 U/mL penicillin-streptomycin (Thermo Fisher Scientific, cat. 15140122), and 2.5% Matrigel (Corning Inc., Corning, NY, cat. 354248) for the first three passages. The two PDC lines 997537-175-T-J1-PDC and 415267-285-R-J2-PDC were cultured on uncoated flasks. The 857933-349-R-J2-PDC line was cultured in 6C/Colon 1B media containing advanced DMEM/F-12 (Thermo Fisher Scientific, cat. 12634028), 10 mM HEPES (Thermo Fisher Scientific, cat. 15630080), 1X GlutaMAX supplement (Thermo Fisher Scientific, cat. 35050061), 0.1 mg/mL primocin (InvivoGen, San Diego, CA, cat. ant-pm-2), 10% defined fetal bovine serum, heat inactivated (HyClone Laboratories Inc., Logan, UT, cat. SH30070.03HI), 50% L-WRN conditioned media (ATCC, cat. CRL-3276), 1.25 mM N-Acetyl-L-cysteine (Sigma-Aldrich, cat. A9165), 10 mM nicotinamide (Sigma-Aldrich, cat. N0636), 1X B-27 supplement (Thermo Fisher Scientific, cat. 17504044), 1X N-2 supplement (Thermo Fisher Scientific, cat. […]

“And” between values parts separate entries of the source, which are not always exact repeats. Equal entries are not always repeated.
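Also: spheroids exposed to compounds for one week.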

A word on the viability, T/C: it is the result in the treated group divided by that in the control group, in per cent. Turning to `CC(C)n1c(=O)n(C)c2cnc3cc(F)c(-c4ccc(OCCCN5CCCCC5)nc4)cc3c21`, the viability, T/C by setting is: (compound 0.0316 µM) 104% and 96.1% and 15.7%; (compound 0.1 µM) 97.3% and 81.5% and 19.8%; (compound 0.316 µM) 111% and 83.6% and 12.2%; (compound 1 µM) 99.2% and 101% and 14.6%; (compound 3.16 µM) 101% and 85.8% and 17.6%; (compound 10 µM) 91% and 102% and 18.9%.

As usually defined, the IC50 is the point on the concentration scale where inhibition reaches its midpoint. As to `COc1cccc2c1C(=O)c1c(O)c3c(c(O)c1C2=O)CC(O)(C(=O)CO)CC3OC1CC(N)C(O)C(C)O1` (stereo not drawn) + Cc1cccc(N(C)C(=O)C2C(O)CCN2c2nc(C)cc(C(F)(F)F)c2C#N)c1, the IC50 runs as follows: (second compound 0.0316 µM) 142 nM; (second compound 0.1 µM) 123 nM; (second compound 0.316 µM) 115 nM; (second compound 1 µM) 83.6 nM; (second compound 3.16 µM) 83.7 nM; (second compound 10 µM) 79.5 nM. Besides, the viability, T/C reads like this: (second compound 0.0316 µM, first compound 0.0316 µM) 73.8%; (second compound 0.0316 µM, first compound 0.1 µM) 68.2%; (second compound 0.0316 µM, first compound 0.316 µM) 8.09%; (second compound 0.0316 µM, first compound 1 µM) 0.74%; (second compound 0.0316 µM, first compound 3.16 µM) 1.88%; (second compound 0.0316 µM, first compound 10 µM) 3.67%. Besides, the viability, T/C is, setting by setting: (second compound 0.1 µM, first compound 0.0316 µM) 77.1%; (second compound 0.1 µM, first compound 0.1 µM) 59.3%; (second compound 0.1 µM, first compound 0.316 µM) 7.54%; (second compound 0.1 µM, first compound 1 µM) 0.78%; (second compound 0.1 µM, first compound 3.16 µM) 3.07%; (second compound 0.1 µM, first compound 10 µM) 5.78%. Moreover, the viability, T/C runs as follows: (second compound 0.316 µM, first compound 0.0316 µM) 89.2%; (second compound 0.316 µM, first compound 0.1 µM) 55.7%; (second compound 0.316 µM, first compound 0.316 µM) 9.71%; (second compound 0.316 µM, first compound 1 µM) 0.66%; (second compound 0.316 µM, first compound 3.16 µM) 2.56%; (second compound 0.316 µM, first compound 10 µM) 5.49%. Further, the viability, T/C is 102% (second compound 1 µM, first compound 0.0316 µM); 40.4% (second compound 1 µM, first compound 0.1 µM); 7.53% (second compound 1 µM, first compound 0.316 µM); 0.6% (second compound 1 µM, first compound 1 µM); 2.63% (second compound 1 µM, first compound 3.16 µM); 4.09% (second compound 1 µM, first compound 10 µM). In addition, the viability, T/C runs as follows: (second compound 3.16 µM, first compound 0.0316 µM) 99.3%; (second compound 3.16 µM, first compound 0.1 µM) 41%; (second compound 3.16 µM, first compound 0.316 µM) 6.13%; (second compound 3.16 µM, first compound 1 µM) 0.63%; (second compound 3.16 µM, first compound 3.16 µM) 3.14%; (second compound 3.16 µM, first compound 10 µM) 4.04%. The viability, T/C is, setting by setting: (second compound 10 µM, first compound 0.0316 µM) 94%; (second compound 10 µM, first compound 0.1 µM) 39%; (second compound 10 µM, first compound 0.316 µM) 5.5%; (second compound 10 µM, first compound 1 µM) 1.83%; (second compound 10 µM, first compound 3.16 µM) 3.46%; (second compound 10 µM, first compound 10 µM) 3.24%.
